According to ChEMBL document CHEMBL5291721, “A preclinical secondary pharmacology resource illuminates target-adverse drug reaction associations of marketed drugs” (Nat Commun, 2023):

Assays:
[1] = target: Histamine H2 receptor (Homo sapiens, UniProt P25021); assay type: functional, cell-based
[2] = target: Gamma-aminobutyric acid receptor subunit alpha-1 (Rattus norvegicus, UniProt P62813); assay type: functional
[3] = target: T1, Type-1 angiotensin II receptor (Homo sapiens, UniProt P30556)
T1 sequence (P30556 whole entry): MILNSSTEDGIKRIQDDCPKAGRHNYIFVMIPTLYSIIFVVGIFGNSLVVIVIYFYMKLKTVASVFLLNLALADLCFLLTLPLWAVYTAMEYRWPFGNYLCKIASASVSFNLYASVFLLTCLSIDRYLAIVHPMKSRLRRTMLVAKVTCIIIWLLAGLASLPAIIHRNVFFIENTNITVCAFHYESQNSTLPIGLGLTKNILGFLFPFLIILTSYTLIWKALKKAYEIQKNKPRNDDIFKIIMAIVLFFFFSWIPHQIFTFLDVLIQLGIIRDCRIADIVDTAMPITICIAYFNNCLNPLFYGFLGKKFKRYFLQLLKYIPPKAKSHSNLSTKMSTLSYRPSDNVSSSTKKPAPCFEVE

[4] = target: 5-hydroxytryptamine receptor 2B (Homo sapiens, UniProt P41595); assay type: functional, cell-based
[5] = target: Cannabinoid receptor 1 (Homo sapiens, UniProt P21554)
[6] = target: Vasopressin V2 receptor (Homo sapiens, UniProt P30518)
[7] = target: T2, Alpha-2A adrenergic receptor (Homo sapiens, UniProt P08913); assay type: functional, cell-based
T2 sequence (P08913 whole entry): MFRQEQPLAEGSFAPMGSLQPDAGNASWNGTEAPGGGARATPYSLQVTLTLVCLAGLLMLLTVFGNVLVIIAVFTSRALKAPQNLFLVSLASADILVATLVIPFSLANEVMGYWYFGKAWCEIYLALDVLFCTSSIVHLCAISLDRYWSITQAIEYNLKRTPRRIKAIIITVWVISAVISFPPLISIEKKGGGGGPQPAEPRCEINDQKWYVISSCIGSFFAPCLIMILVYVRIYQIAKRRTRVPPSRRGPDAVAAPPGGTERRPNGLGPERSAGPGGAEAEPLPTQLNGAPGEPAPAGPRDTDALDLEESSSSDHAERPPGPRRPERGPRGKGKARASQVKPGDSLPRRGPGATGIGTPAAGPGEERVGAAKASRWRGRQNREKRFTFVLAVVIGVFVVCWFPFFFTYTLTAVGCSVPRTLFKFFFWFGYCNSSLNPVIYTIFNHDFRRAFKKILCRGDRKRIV

[8] = target: T3, Amine oxidase [flavin-containing] A (Homo sapiens, UniProt P21397); assay type: functional
T3 sequence (P21397 whole entry): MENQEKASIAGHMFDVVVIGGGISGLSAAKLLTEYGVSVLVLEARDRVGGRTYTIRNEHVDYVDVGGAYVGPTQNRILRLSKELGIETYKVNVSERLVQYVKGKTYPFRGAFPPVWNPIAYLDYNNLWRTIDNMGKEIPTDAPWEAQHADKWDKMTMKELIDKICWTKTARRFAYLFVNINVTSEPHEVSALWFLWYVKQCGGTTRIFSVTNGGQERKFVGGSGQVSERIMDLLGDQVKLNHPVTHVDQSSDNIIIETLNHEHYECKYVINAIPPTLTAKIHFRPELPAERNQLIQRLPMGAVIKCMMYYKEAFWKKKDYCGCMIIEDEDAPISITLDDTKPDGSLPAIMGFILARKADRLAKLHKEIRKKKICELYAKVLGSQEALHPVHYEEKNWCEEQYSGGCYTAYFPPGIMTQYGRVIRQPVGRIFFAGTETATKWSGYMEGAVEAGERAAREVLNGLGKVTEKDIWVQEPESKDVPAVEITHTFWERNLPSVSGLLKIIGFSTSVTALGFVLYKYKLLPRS

[9] = target: Beta-2 adrenergic receptor (Homo sapiens, UniProt P07550)
[10] = target: Mu-type opioid receptor (Homo sapiens, UniProt P35372)
[11] = target: Vasopressin V1a receptor (Homo sapiens, UniProt P37288)
[12] = target: T4, Alpha-1A adrenergic receptor (Homo sapiens, UniProt P35348); assay type: functional, cell-based
T4 sequence (P35348 whole entry): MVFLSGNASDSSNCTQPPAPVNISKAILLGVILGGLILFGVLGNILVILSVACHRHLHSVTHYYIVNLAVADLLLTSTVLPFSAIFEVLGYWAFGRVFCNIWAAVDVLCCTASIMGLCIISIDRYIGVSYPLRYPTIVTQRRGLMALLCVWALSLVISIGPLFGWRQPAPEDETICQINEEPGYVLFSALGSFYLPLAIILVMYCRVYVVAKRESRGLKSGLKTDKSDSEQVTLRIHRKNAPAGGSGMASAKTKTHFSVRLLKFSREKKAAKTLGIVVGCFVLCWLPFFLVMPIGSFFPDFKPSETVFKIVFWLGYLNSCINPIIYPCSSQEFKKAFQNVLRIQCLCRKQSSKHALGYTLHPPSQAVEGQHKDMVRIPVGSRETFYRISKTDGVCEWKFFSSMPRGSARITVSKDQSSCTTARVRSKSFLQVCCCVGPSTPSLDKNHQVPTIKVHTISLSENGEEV

[13] = target: Melanocortin receptor 4 (Homo sapiens, UniProt P32245)
[14] = target: T5, Muscarinic acetylcholine receptor M1 (Homo sapiens, UniProt P11229); assay type: functional
T5 sequence (P11229 whole entry): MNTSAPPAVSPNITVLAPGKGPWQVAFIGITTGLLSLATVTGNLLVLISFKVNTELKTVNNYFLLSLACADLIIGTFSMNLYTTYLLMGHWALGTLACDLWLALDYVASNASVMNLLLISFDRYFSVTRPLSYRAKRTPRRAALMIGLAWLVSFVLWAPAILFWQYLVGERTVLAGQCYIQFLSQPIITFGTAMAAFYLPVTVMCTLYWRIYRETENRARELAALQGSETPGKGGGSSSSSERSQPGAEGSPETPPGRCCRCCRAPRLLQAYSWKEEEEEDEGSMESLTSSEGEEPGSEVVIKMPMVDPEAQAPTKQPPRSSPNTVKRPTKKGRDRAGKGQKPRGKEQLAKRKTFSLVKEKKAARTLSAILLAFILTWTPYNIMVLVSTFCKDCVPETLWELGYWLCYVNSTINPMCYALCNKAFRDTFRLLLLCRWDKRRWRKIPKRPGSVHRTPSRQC
Further: assay procedure not described here.

Chain of Vasopressin V1a receptor (P37288 whole entry): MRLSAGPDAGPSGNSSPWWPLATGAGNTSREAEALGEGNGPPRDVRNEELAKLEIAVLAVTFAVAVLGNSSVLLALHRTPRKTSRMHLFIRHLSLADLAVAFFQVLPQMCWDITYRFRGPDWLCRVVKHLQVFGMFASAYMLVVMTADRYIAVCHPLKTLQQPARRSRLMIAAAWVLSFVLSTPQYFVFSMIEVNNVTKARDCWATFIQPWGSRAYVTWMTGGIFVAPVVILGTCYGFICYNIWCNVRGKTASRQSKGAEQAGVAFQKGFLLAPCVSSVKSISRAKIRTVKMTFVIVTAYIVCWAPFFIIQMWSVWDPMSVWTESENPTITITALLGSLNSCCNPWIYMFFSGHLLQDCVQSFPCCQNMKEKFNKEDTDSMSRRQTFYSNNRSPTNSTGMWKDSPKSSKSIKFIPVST
Chain of Gamma-aminobutyric acid receptor subunit alpha-1 (P62813 whole entry): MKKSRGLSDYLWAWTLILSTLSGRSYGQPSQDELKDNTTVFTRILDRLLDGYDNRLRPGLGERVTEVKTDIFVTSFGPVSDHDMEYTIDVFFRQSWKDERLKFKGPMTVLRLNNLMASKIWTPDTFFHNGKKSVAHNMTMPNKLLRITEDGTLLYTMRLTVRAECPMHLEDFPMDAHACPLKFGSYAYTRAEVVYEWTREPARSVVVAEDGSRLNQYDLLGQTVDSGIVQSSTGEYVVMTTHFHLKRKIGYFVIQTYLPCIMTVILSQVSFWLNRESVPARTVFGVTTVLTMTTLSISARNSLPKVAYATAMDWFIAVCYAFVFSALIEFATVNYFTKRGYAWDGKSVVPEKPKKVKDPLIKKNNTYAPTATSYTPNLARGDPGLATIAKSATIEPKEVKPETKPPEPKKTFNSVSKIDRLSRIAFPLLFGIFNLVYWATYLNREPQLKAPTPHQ
Chain of 5-hydroxytryptamine receptor 2B (P41595 whole entry): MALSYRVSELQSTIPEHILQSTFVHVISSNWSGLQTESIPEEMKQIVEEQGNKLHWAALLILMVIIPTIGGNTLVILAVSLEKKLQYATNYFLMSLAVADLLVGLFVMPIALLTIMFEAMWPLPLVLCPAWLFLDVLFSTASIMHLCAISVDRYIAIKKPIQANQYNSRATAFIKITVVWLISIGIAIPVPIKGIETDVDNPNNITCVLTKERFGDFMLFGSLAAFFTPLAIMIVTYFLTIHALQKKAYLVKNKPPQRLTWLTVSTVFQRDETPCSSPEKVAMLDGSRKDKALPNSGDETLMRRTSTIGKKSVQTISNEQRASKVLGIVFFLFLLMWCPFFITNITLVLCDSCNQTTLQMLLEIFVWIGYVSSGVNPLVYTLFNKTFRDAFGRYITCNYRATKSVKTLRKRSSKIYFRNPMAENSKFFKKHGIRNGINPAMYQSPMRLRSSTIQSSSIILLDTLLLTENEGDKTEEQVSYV
Chain of Mu-type opioid receptor (P35372 whole entry): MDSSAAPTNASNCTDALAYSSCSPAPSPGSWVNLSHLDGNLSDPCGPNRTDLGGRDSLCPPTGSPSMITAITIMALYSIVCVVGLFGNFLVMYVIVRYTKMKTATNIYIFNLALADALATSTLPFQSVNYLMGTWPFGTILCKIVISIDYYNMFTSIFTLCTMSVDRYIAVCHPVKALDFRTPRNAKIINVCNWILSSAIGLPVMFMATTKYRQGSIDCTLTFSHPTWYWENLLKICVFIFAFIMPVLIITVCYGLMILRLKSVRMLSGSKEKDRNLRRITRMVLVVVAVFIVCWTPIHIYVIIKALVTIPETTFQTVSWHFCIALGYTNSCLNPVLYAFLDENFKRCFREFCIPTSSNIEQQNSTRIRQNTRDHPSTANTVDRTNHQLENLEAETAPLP
Chain of Beta-2 adrenergic receptor (P07550 whole entry): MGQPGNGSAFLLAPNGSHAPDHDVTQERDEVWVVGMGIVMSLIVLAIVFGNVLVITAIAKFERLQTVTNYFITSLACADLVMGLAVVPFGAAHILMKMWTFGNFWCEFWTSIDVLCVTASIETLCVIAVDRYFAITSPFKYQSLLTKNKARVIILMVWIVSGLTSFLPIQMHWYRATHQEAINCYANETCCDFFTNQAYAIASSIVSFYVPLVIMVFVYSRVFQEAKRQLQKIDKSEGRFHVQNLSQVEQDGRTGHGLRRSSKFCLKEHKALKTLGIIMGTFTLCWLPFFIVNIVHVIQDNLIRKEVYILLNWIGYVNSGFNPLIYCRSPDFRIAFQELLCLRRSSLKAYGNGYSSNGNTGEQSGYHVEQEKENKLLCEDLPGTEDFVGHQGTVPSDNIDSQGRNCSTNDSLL
Chain of Vasopressin V2 receptor (P30518 whole entry): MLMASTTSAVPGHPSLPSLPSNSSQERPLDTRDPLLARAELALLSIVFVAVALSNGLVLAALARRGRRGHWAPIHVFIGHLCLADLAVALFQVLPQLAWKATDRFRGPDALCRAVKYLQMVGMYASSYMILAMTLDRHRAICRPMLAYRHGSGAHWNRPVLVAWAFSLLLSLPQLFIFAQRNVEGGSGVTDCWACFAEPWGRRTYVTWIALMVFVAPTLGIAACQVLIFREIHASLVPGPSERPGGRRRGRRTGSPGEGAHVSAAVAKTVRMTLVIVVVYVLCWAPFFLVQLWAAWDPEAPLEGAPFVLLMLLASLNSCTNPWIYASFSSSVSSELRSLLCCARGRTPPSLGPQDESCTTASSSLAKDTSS
Chain of Cannabinoid receptor 1 (P21554 whole entry): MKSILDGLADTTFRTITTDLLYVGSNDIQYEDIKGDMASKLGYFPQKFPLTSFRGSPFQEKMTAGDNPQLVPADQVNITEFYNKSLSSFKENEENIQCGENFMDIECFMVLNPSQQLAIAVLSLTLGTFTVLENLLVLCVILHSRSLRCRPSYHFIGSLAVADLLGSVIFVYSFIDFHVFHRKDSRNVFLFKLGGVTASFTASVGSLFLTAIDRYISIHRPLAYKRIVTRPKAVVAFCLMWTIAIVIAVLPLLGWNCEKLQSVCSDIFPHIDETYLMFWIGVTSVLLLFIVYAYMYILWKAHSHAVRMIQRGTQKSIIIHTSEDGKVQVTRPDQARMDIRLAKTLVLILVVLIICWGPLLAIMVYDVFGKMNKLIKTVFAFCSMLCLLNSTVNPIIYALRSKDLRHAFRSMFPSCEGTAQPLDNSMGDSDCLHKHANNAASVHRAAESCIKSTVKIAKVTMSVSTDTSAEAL
Chain of Histamine H2 receptor (P25021 whole entry): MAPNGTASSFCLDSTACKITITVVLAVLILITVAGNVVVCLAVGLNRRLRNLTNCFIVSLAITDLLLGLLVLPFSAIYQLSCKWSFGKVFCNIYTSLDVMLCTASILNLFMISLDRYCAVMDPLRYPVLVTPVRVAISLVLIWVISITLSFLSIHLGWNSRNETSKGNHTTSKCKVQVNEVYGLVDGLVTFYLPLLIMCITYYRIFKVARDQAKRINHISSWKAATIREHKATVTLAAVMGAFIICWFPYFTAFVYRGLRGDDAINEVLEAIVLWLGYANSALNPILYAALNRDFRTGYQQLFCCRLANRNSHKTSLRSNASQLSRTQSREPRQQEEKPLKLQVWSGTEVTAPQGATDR
Chain of Melanocortin receptor 4 (P32245 whole entry): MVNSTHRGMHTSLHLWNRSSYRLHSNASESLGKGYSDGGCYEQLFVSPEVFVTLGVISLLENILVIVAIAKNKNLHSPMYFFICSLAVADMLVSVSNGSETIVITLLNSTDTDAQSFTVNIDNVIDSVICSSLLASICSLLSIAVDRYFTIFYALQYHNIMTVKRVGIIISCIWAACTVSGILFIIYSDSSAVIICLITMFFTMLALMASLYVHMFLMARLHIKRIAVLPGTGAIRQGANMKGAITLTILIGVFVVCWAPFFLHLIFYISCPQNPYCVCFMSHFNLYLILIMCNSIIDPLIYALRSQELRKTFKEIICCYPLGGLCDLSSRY

Row | Structure (SMILES) | AC50 [1] [µM] | AC50 [2] [µM] | AC50 [3] [µM] | AC50 [4] [µM] | AC50 [5] [µM] | AC50 [6] [µM] | AC50 [7] [µM] | AC50 [8] [µM] | AC50 [9] [µM] | AC50 [10] [µM] | AC50 [11] [µM] | AC50 [12] [µM] | AC50 [13] [µM] | AC50 [14] [µM]
1 | COc1ccc(/C=C/C(=O)Nc2ccccc2C(=O)O)cc1OC | > 30 | > 30 | > 30 | > 30 | > 30 | > 30 | > 30 | > 30 | > 30 | > 30 |  |  |  | 
2 | CCCCCCNC(=O)n1cc(F)c(=O)[nH]c1=O [CARMOFUR] | > 30 | > 30 | > 30 | > 30 | > 30 | > 30 | > 30 | > 30 | > 30 |  |  |  |  | 
3 | COc1cccc2c1C(=O)c1c(O)c3c(c(O)c1C2=O)C[C@@](O)(C(C)=O)C[C@@H]3O[C@H]1C[C@H](N)[C@H](O)[C@H](C)O1 [DAUNORUBICIN] | > 30 | > 30 | > 30 |  |  | > 10 |  | > 30 | > 30 | 24 | 3.6 |  |  | 
4 | Clc1ccc2c(c1)C(c1ccccc1)=NCc1nncn1-2 [ESTAZOLAM] | > 10 | 0.0336 | > 30 | > 10 |  | > 30 | > 10 | > 10 | > 10 | > 30 | > 30 | > 30 | > 30 | > 10
5 | Clc1ccc(C(Cn2ccnc2)OCc2ccc(Sc3ccccc3)cc2)c(Cl)c1 (stereo unspecified) [FENTICONAZOLE] | > 30 | > 30 | 23 | > 30 | 11 | > 30 | > 30 | > 30 | > 30 |  | > 30 | > 30 |  | > 30
6 | Nc1ccn([C@@H]2O[C@H](CO)[C@@H](O)C2(F)F)c(=O)n1 [GEMCITABINE] | > 10 | > 10 | > 30 | > 10 |  | > 30 | > 10 | > 10 | > 30 | > 30 | > 30 | > 30 | > 30 | 
7 | C#C[C@]1(O)CC[C@H]2[C@@H]3CCC4=CC(=O)CCC4=C3C=C[C@@]21CC [GESTRINONE] | > 30 | 8.8 | > 30 | > 30 |  | > 30 | > 30 | > 30 | > 30 |  | > 30 | > 30 |  | > 30
8 | CCCCCCOC(=O)CCC(=O)CN [HEXAMINOLEVULINATE] | > 30 | > 30 | > 30 | > 30 |  | > 30 | > 30 | > 30 | > 30 |  | > 30 | > 30 |  | > 30
